Structures can show the parent of a compound that is named as a salt.
Each compound was assayed against T1, protein farnesyltransferase (Rattus norvegicus, UniProt Q02293+Q04631) (assay: in vitro inhibition of protein farnesyltransferase (scintillation proximity assay, biotin-K Ras B fragment)). Details: at 1 × 10^-5 M.
T1 construct: Rat brain protein farnesyltransferase activity is measured; from tissue; host or cells: rat brain; purified according to Reiss et al., Cell 62:81-88 (1990), steps one through three
Assay type: biochemical
Procedure, shortened: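 Scintillation proximity read-out of farnesylation, using a biotinylated K Ras B fragment (0.1 mM final) in place of biotin-lamin. Enzyme purified from rat brain; results given as % inhibition.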

inhibition at 10 µM [%]	Compound
> 50	CSCC[C@H](NC(=O)c1ccc(NC(=O)[C@@H]2C[C@@H](O)CN2)cc1-c1ccccc1)C(=O)O [Example 952, N-[4-(4-hydroxyprolinylamino)-2-phenylbenzoyl]methionine]

Same assay, conditions: at 1 × 10^-6 M

% inhibition of farnesyltransferase [%]	Compound
95	COc1ccc(CCOCc2ccc(C(=O)N[C@@H](CCSC)C(=O)O)c(-c3ccccc3C)c2)cc1 [Example 937]
93	CSCC[C@H](NC(=O)c1ccc(COC2CCN(Cc3ccccc3)C2)cc1-c1ccccc1C)C(=O)O (stereo partly drawn) [Example 987]

Same assay, conditions: at 1 × 10^-6 M; read-out: % inhibition of farnesyltransferase

inhibition at 1 µM [%]	Compound
69	CSCC[C@H](NC(=O)c1ccc(CNCc2ccccc2)cc1-c1ccccc1)C(=O)O [Example 936, N-[4-(N-benzylaminomethyl)-2-phenylbenzoyl]methionine hydrochloride salt]
26	CSCC[C@H](NC(=O)c1ccc(NC(=O)OCCCl)cc1-c1ccccc1)C(=O)O [Example 979, N-[4-(N-2-chloroethoxycarbonyl)amino-2-phenylbenzoyl]methionine]
64	CSCC[C@H](NC(=O)c1ccc(CN(C)C(C)(C)Cc2ccccc2)cc1-c1ccccc1C)C(=O)O [Example 982, N-[4-(N-Methyl-N-(1,1-dimethyl-2-phenylethyl)aminomethyl)-2-(2-methylphenyl)-benzoyl]methionine lithium salt]

Same assay, conditions: at 1 × 10^-7 M

Compound	% inhibition of farnesyltransferase [%]
CCCC(CCC)NOCc1ccc(C(=O)N[C@@H](CCSC)C(=O)O)c(-c2ccccc2C)c1 [Example 929]	81
COc1ccccc1COCc1ccc(C(=O)N[C@@H](CCSC)C(=O)[O-])c(-c2ccccc2C)c1.[Li+] [Example 931]	98
CSCC[C@H](NC(=O)c1ccc(COCc2ccc(Cl)cc2)cc1-c1ccccc1C)C(=O)[O-].[Li+] [Example 933]	91
COc1ccc(COCc2ccc(C(=O)N[C@@H](CCSC)C(=O)[O-])c(-c3ccccc3C)c2)cc1.[Li+] [Example 935]	72
CSCC[C@H](NC(=O)c1ccc(COCc2ccc(C(C)C)cc2)cc1-c1ccccc1C)C(=O)[O-].[Li+] [Example 940]	92
CSCC[C@H](NC(=O)c1ccc(COCc2cccc(N(C)C)c2)cc1-c1ccccc1C)C(=O)O [Example 941]	90
CCSCC(CC1CCCCC1)N(Cc1ccc(C(=O)N[C@@H](CCSC)C(=O)O)c(-c2ccccc2C)c1)CC(C)C (stereo partly drawn) [Example 945, N-[4-N-(3-Cyclohexyl-1-ethylthiopropan-2-yl)-N-isobutylaminomethyl-2-(2-methylphenyl)benzoyl]-methionine]	80

Same assay, conditions: at 1 × 10^-7 M; read-out: % inhibition of farnesyltransferase

Compound	inhibition at 0.1 µM [%]
CCSC[C@H](CC1CCCCC1)N(Cc1ccc(C(=O)N[C@@H](CCSC)C(=O)O)c(-c2ccccc2C)c1)C(C)=O [Example 947, N-[4-N-acetyl-N-(3-Cyclohexyl-1-ethylthiopropan-2-yl)aminomethyl-2-(2-methylphenyl)-benzoyl]methionine]	79
CCSC[C@H](CC1CCCCC1)N(Cc1ccc(C(=O)N[C@@H](CCSC)C(=O)O)c(-c2ccccc2C)c1)C(=O)OC(C)(C)C [Example 948, N-[4-N-t-Butyloxycarbonyl-N-(3-cyclohexyl-1-ethylthiopropan-2-yl)aminomethyl-2-(2-methylphenyl)benzoyl]methionine]	75
CCSC[C@H](CC1CCCCC1)N(Cc1ccc(C(=O)N[C@@H](CCSC)C(=O)O)c(-c2ccccc2C)c1)S(=O)(=O)c1ccccc1 [Example 951]	71

Next, values leading:

inhibition at 0.1 µM [%]	Compound
57	CCSC[C@H](CC1CCCCC1)N(Cc1ccc(C(=O)N[C@@H](CCSC)C(=O)O)c(-c2ccccc2C)c1)C(=O)c1ccccc1 [Example 949, N-[4-N-Benzoyl-N-(3-Cyclohexyl-1-ethylthiopropan-2-yl)aminomethyl-2-(2-methylphenyl)-benzoyl]methionine]
71	CCCCS(=O)(=O)N(Cc1ccc(C(=O)N[C@@H](CCSC)C(=O)O)c(-c2ccccc2C)c1)[C@H](CSCC)CC1CCCCC1 [Example 950, N-[4-N-Butanesulfoyl-N-(3-Cyclohexyl-1-ethylthiopropan-2-yl)aminomethyl-2-(2-methylphenyl)-benzoyl]methionine]
> 50	CSCC[C@H](NC(=O)c1ccc(NC[C@@H]2C[C@H](S)CN2)cc1-c1ccccc1)C(=O)O [Example 959, N-[4-((2S,4S)-4-thiolpyrrolidin-2-ylmethylamino)-2-phenylbenzoyl]methionine]

Same assay, conditions: at 1 × 10^-8 M

Compound	% inhibition of farnesyltransferase [%]
CSCC[C@H](NC(=O)c1ccc(COCc2ccccc2Cl)cc1-c1ccccc1C)C(=O)[O-].[Li+] [Example 930]	66
COc1cccc(COCc2ccc(C(=O)N[C@@H](CCSC)C(=O)[O-])c(-c3ccccc3C)c2)c1.[Li+] [Example 932]	60
CSCC[C@H](NC(=O)c1ccc(COCc2cccc(Cl)c2)cc1-c1ccccc1C)C(=O)[O-].[Li+] [Example 934]	71
CSCC[C@H](NC(=O)c1ccc(COCc2ccccc2C(C)C)cc1-c1ccccc1C)C(=O)[O-].[Li+] [Example 938]	61
CSCC[C@H](NC(=O)c1ccc(COCc2cccc(C(C)C)c2)cc1-c1ccccc1C)C(=O)[O-].[Li+] [Example 939]	72
CCCCC(CCCC)OCc1ccc(C(=O)N[C@@H](CCSC)C(=O)[O-])c(-c2ccccc2C)c1.[Li+] [Example 942]	58
CCCCC(Cc1ccccc1Cl)OCc1ccc(C(=O)N[C@@H](CCSC)C(=O)O)c(-c2ccccc2C)c1 (stereo partly drawn) [Example 943]	79
CCCCC(OCc1ccc(C(=O)N[C@@H](CCSC)C(=O)O)c(-c2ccccc2C)c1)c1cncs1 (stereo partly drawn) [Example 985]	89

Same assay, conditions: at 1 × 10^-8 M; read-out: % inhibition of farnesyltransferase

Compound	inhibition at 0.01 µM [%]
CCCCS(=O)(=O)N(CCCc1ccccc1)Cc1ccc(C(=O)N[C@@H](CCSC)C(=O)O)c(-c2ccccc2C)c1 [Example 927, N-[4-(N-Butanesulfonyl-N-(3-phenylpropyl)aminomethyl)-2-(2-methylphenyl)benzoyl]methionine]	74
CSCC[C@H](NC(=O)c1ccc(NC[C@H]2NCC[C@H]2S)cc1-c1ccccc1)C(=O)O [Example 960, N-[4-((2S,4R)-4-thiolpyrrolidin-2-ylmethylamino)-2-phenylbenzoyl]methionine]	> 50

Now from value to compound:

inhibition at 0.01 µM [%]	Compound
84	CCCCN(CCc1ccccc1)Cc1ccc(C(=O)N[C@@H](CCSC)C(=O)O)c(-c2ccccc2C)c1 [Example 928, N-[4-(N-Butyl-N-(2-phenylethyl)aminomethyl)-2-(2-methylphenyl)benzoyl]methionine]
88	CCSC[C@H](CC1CCCCC1)N(C)Cc1ccc(C(=O)N[C@@H](CCSC)C(=O)O)c(-c2ccccc2C)c1 [Example 944, N-[4-N-(3-Cyclohexyl-1-ethylthiopropan-2-yl)-N-methylaminomethyl-2-(2-methylphenyl)benzoyl]-methionine hydrochloride salt]
52	CCSC[C@H](CC1CCCCC1)N(C=O)Cc1ccc(C(=O)N[C@@H](CCSC)C(=O)O)c(-c2ccccc2C)c1 [Example 946, N-[4-N-(3-Cyclohexyl-1-ethylthiopropan-2-yl)-N-formylaminomethyl-2-(2-methylphenyl)benzoyl]methionine]
95	CSCC[C@H](NC(=O)c1ccc(CN(CCC2CCCCC2)Cc2cncs2)cc1-c1ccccc1C)C(=O)O [Example 986]

Source: patent publication US6310095A, “Inhibitors of protein isoprenyl transferases” (University of Pittsburgh, priority 1998, dated 2001)
